Entries after “also recorded” stand apart in the source; their conditions may differ.
System: Sprague-Dawley rats
Assay: Copulatory activity (sexual behaviour) test in male rats with very short ejaculation latency
Type: in vivo, rat
Conditions: for ejaculation latency (EL) / intromission frequency (IF) / intromission latency (IL) / mount frequency (MF) / mount latency (ML) / postejaculatory interval (PEI): 45 min before test, mean ± SEM (n = 8-10)
Protocol: The resulting extract was solubilised in Tween 80 (10%) and water and administered to test animals through a gastric probe, in a volume of 5 ml/kg, at different doses, 45 minutes before the in vivo test. Sprague-Dawley rats were used, both males (weighing approx. 220 g) and females (weighing approx. 160 g), from Harlan Italy (Udine, Italy). The animals were housed under controlled temperature and humidity conditions (22±1° C., 60% humidity), with 12 hours inverted light-darkness cycle, with lights on at 7 a.m. Females were ovariectomized and subcutaneously injected with estradiol valerate (500 μg) and progesterone (2 mg) 48 hours after, to induce estrus. Male rats with very short ejaculation latency time were chosen through starting screening consisting of 7 pre-tests [A. Ågmo, Male rat sexual behavior, Brain Research Protocols 1: 203-209, 1997]. The resulting extract according to Example II or rosmarinic acid were solubilised in Tween 80 (10%) and water and administered to animals, by gastric probe, in a volume of 5 ml/kg, at different doses, 45 minutes before carrying out all the in vivo tests. Sexual behaviour was evaluated under quite conditions, with feeble red light, according to the standard procedure [A. Ågmo, Male rat sexual behavior, Brain Research Protocols 1: 203-209, 1997]. The main parameters recorded during the test were: 1) mount latency (ML); 2) intromission latency (IL); 3) ejaculation latency (EL); 4) postejaculatory interval (PEI); 5) mount frequency (MF); 6) intromission frequency (IF).

[1] = rosmarinic acid 10 mg/kg by gastric probe
[2] = rosmarinic acid 20 mg/kg by gastric probe

O=C(/C=C/c1ccc(O)c(O)c1)O[C@H](Cc1ccc(O)c(O)c1)C(=O)O [Rosmarinic acid, rosmarinic acid]
ejaculation latency (EL) [1]: 1282.2 ± 90.4 s | intromission frequency (IF) [1]: 19.8 ± 1.2 n° | intromission latency (IL) [1]: 393.9 ± 89.8 s | mount frequency (MF) [1]: 1.6 ± 0.3 n° | mount latency (ML) [1]: 382.4 ± 93.6 s | postejaculatory interval (PEI) [1]: 548.5 ± 45.5 s | ejaculation latency (EL) [2]: 1493.1 ± 81.9 s | intromission frequency (IF) [2]: 27.3 ± 0.7 n° | intromission latency (IL) [2]: 408.4 ± 48.6 s | mount frequency (MF) [2]: 1.1 ± 0.1 n° | mount latency (ML) [2]: 425.8 ± 83.2 s | postejaculatory interval (PEI) [2]: 602.2 ± 102.4 s | activity on copulatory activity / ejaculation latency compared with the extract (in words) (rosmarinic acid, doses of 10 and 20 mg/kg, same experimental conditions): equivalent activity to that of the extract; also recorded: same results
